According to ChEMBL document CHEMBL1142451, “The molecular interactions of buspirone analogues with the serotonin transporter” (Bioorg Med Chem, 2008):
pIC50: −log10 of the molar value.

Columns and labels:
[1] = biological target: Sodium-dependent serotonin transporter (Rattus norvegicus, UniProt P31652); assay: Displacement of [3H]5-HT from SERT in rat cerebral cortex synaptosome membrane; format: tissue-based, Brain
[2] = biological target: Sodium-dependent serotonin transporter (Homo sapiens, UniProt P31645); assay: Displacement of [3H]5-HT from human SERT
Sequence of Sodium-dependent serotonin transporter (Homo sapiens, UniProt P31645) (P31645 whole entry): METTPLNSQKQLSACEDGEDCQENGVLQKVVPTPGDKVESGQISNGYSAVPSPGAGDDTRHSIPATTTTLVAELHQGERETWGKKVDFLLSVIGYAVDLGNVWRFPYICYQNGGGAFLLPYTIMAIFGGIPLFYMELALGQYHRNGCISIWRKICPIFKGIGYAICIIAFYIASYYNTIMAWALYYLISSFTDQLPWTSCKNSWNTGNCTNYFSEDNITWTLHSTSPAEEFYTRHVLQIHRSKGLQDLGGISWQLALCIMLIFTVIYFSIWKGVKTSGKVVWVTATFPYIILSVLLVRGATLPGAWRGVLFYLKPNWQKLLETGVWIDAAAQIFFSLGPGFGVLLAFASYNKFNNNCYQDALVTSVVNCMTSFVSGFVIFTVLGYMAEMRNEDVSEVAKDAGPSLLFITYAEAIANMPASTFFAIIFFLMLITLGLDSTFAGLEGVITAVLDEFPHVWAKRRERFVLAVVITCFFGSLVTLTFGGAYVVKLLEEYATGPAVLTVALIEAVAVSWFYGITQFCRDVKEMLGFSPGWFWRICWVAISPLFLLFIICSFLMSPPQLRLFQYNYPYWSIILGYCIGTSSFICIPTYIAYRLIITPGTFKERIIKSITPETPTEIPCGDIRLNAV

Sequence of Sodium-dependent serotonin transporter (Rattus norvegicus, UniProt P31652) (P31652 whole entry): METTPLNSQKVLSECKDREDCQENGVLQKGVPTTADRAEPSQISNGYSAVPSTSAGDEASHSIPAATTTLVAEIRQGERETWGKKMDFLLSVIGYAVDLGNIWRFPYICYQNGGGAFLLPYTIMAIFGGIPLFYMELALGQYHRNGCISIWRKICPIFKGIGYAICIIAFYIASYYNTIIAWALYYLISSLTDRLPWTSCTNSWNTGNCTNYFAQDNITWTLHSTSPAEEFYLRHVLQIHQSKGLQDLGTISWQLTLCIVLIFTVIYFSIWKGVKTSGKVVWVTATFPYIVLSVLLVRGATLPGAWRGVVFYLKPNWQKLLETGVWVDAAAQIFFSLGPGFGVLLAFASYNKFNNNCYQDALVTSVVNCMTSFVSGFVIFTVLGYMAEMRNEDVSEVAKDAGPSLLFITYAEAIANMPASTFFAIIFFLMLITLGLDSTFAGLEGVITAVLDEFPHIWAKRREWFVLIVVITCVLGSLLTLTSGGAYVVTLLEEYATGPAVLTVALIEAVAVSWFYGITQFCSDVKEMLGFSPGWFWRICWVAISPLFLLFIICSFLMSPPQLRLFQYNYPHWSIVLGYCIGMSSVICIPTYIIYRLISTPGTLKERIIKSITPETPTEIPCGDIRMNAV

Structure (SMILES): CC1(C)CC(=O)N(CCCCN2CCN(c3ccc4ccccc4n3)CC2)C(=O)C1
- pIC50 [1]: 6.84

Structure (SMILES): O=C1CC2(CCCC2)CC(=O)N1CCCCN1CCN(c2ccc3ccccc3n2)CC1
- pIC50 [1]: 6.95

Structure (SMILES): O=C1c2ccccc2C(=O)N1CCCCN1CCN(c2ccc3ccccc3n2)CC1
- pIC50 [1]: 7.02

Structure (SMILES): CC1CN(c2ccc3ccccc3n2)CCN1CCCCN1C(=O)c2ccccc2C1=O (stereo not drawn)
- pIC50 [1]: 7.48
- pIC50 [2]: 8.10

Structure (SMILES): CC1CN(c2ccc3ccccc3n2)CCN1CCCCN1C(=O)CCCC1=O (stereo not drawn)
- pIC50 [2]: 7.30

Structure (SMILES): CC1CN(c2ccc3ccccc3n2)CCN1CCCCN1C(=O)CC2(CCCC2)CC1=O (stereo not drawn)
- pIC50 [1]: 7.12

Structure (SMILES): CC1CN(c2ccc3ccccc3n2)CCN1CCCN1C(=O)c2ccccc2C1=O (stereo not drawn)
- pIC50 [2]: 7.10
